The test system of this experiment is red blood cells. The experiment in a line: Red blood cell deformability analysis in microfluidic funnel constriction device (threshold pressure / cortical tension). Format: cell-based. To be noted: for Average cortical tension calculated based on equation (1): number in brackets = cells tested. As for the experimental part:
The deformability of red blood cells was evaluated using a microfluidic cell separation apparatus. An apparatus comprising a serial funnel configuration (schematically represented in FIG. 4) was employed, with funnel constructions of W0=0.5, 1, 1.5, 2, 3, 4, 5 and 6, 7 μm in series. As red blood cells are toroid or disc-shaped, rather than generally spherical, in the absence of movement restriction, they may progress through the device as a ‘flat’ disk (e.g. sideways), or ‘on edge’ (substantially upright, like a wheel). A channel with a height of about 2-3 μm or less will confine the majority of red blood cells to migrate as a ‘flat disk, while a channel with a height greater than about 3-4 μm will allow the red blood cell to migrate in either configuration, or folded or at an angle. Thus, the apparatus was configured to provide a channel depth of about 3 μm, which confines the cell to move flat into the funnel, not to stand up and fold as it traverses through. The threshold pressure required to push the cell through the funnel is measured as an indicator of the whole cell rigidity or deformability. The minimum applied pressure differential is ˜0.3 Pa. Accordingly, the cortical tension of the cell can be measured based on the information of the cell radius, funnel geometry and measured threshold pressure, as governed by equation (1) above derived from Laplace law PMS (phenazine methosulfate) generates superoxide from within the cell in the same way as the auto-oxidation process inside of the sickled red blood cell (RBC). In response to oxidation, the cell membrane stiffens. This induced stiffening may be employed to simulate the microrheologic properties of dense and/or dehydrated sickle cells (Hebbel, R. P., A. Leung, and N. Mohandas, Oxidation-Induced Changes in Microrheologic Properties of the Red-Blood-Cell Membrane. Blood, 1990. 76(5): p. 1015-1020, Hebbel, R. P., The sickle erythrocyte in double jeopardy: autoxidation and iron decompartmentalization. Seminars in hematology, 1990. 27(1): p. 51-69, and references therein). Here we use microfluidic device to measure the rigidity of PMS treated red blood cells compared to untreated (control) red blood cells, as well as the degree of rigidity change corresponding to different concentration of PMS. RBCs were suspended at 20% hematocrit in balanced salt solution with antibiotics. The RBC suspensions were then modified with 0, 10, 25, and 50 μM PMS for 60 minutes, followed by dilution 200:1 using phosphate buffered saline for use with the apparatus. The PMS treated RBCs and control RBCs were tested to investigate the effect of PMS on rigidity and/or deformability of the RBCs. Measured threshold pressures are an indication of the changes in deformability. […] Threshold pressures were measured of RBC squeezing through 1.1 μm and 1.4 μm constrictions.

Molecules are shown by their SMILES.

On to `COS(=O)(=O)[O-].C[n+]1c2ccccc2nc2ccccc21` [PMS, phenazine methosulfate], for which, for the setting “1.1 μm and 1.4 μm constrictions, 0, 10, 25, 50 μM PMS, FIG. 15”, the “Threshold pressure of RBC squeezing through constrictions” value is “increases as the concentration increases”. Further, the “Deformability of the red cell membrane” value (PMS 10 to 50 μM) was “decreases as the PMS concentration increases”. The “Average cortical tension calculated based on equation (1)” value (RBC treated with 10 μmol PMS for 60 minutes) is reported as 2.29 ± 0.19 (7) pN/μm, the “Average cortical tension calculated based on equation (1)” value (RBC treated with 25 μmol PMS for 60 minutes) is 3.38 ± 0.30 (7) pN/μm and the “Average cortical tension calculated based on equation (1)” value (RBC treated with 50 μmol PMS for 60 minutes) is 4.17 ± 0.19 (8) pN/μm. The “Red cell rigidity versus normal control RBC” value (fresh from the PMS treatment) was “obvious increase in rigidity”.

Source of the values: patent US9880084B2, “Apparatus for separation of particles” (THE UNIVERSITY OF BRITISH COLUMBIA, priority 2011, dated 2018).
